Where “and” joins values, the source holds several entries; their conditions need not be identical. Identical values can stand only once. Marks after values point to notes of the source that are not given here.
Columns and labels:
[1] = ORAC (Oxygen Radical Absorbance Capacity) antioxidant activity; format: biochemical; conditions: for antioxidant activity in comparison with trolox: ORAC
Excerpt: The ORAC (Oxygen Radical Absorbance Capacity) method, described in Cao, G., Alessio, H. M., Cutler, R. G. Free radical Biology & Medecine 1993, 14: 303-311<<Oxygen-Radical Absorbance Capacity assay for antioxydants>> and Benderitter, M., Vincent-Genid, L., Pouget, J. P., Voisin, P. Radiation Research 2003; 159 (4): 471-483 <<The cell membrane as a biosensor of oxydative stress induced by radiation exposure:multiparameter investigation>>, has been used for measuring the anti-oxidant capability of the compounds of the invention.
By convention, the ORAC antioxidant activity of any molecule is measured in comparison with a recognized reference which is an analog of vitamin E, the trolox (6-hydroxy-2,5,7,8-tetramethylchroman-2-carboxylic acid), the anti-oxidant capability of 1 μM (micro mole) of trolox corresponding to 1 ORAC unit.
The ORAC values are commonly reported in μmol TE/g (in micromole of Trolox Equivalent per gram of product to be tested).
Given these definitions, the trolox has an ORAC index of about 3995 units.
The ORAC values of the compounds 26 and 34 have been measured (average of 3 measurements).

[2] = tested on: normal human dermal fibroblasts; assay: Production of type I pro-collagen in monolayer cultures of normal human dermal fibroblasts (E.I.A.); format: cell-based; conditions: 48 hours; for Procollagen Difference (%): vs DMSO
Method: (§1) The test system consists of monolayers of adult normal human dermal fibroblasts obtained by cultivating cells collected from a tummy tuck carried out on a person.
The used reference activator is the Transforming Growth Factor β (TGF-β) at 1 ng/ml. […]
(§2) The compound to be tested is solubilized in 1 mg/ml in DMSO, then diluted in the cells incubation medium, with a constant concentration of 0.1% (v/v) in DMSO.
Upon completion of the incubation period, the type I pro-collagen contained in the fibroblasts incubation media has been quantified using a sensitive and specific E.I.A. kit.
Upon completion of the incubation period, the proteins contained in the cellular lysates have been quantified by a spectrophotometric method (Bradford method—Bradford M. (1976) Anal. Biochem., 72, 248-254).
(§3) The statistical significance of the differences that have been observed between the <<Control>> and the <<reference product>> conditions, has been assessed through a Student test. The statistical significance of the differences that have been observed between the <<Check>> and the <<test products>> conditions, has been assessed through a one-way analysis of variance (One Way ANOVA) followed by a Holm-Sidak test (*:p<0.05).
The results are given in the form of μg of type I pro-collagen per mg of protein (average+/− the standard deviation, S.D.) and are reported in the following Table 5.

[3] = tested on: normal human dermal fibroblasts; assay: Neo synthesis of elastin in monolayer cultures of normal human dermal fibroblasts; format: cell-based; conditions: 10 ng/ml, 96 hours
Method: as §1
The used reference activator is the ascorbic acid at 100 μg/ml.
The cells have been incubated for 96 hours in the absence (control) or in the presence of the reference product or of increasing concentrations of the active ingredient that is being tested (10 ng/ml; 100 ng/ml; 500 ng/ml).
as §2
Upon completion of the incubation period, the elastin contained in the incubation medium of the explants has been quantified by a spectrophotometric method.
Upon completion of the incubation period, the proteins contained in the cellular lysate have been quantified by a spectrophotometric method (Bradford method—Bradford M. (1976) Anal. Biochem., 72, 248-254).
The results are given in the form of μg of elastin per mg of protein (average+/− the standard deviation, S.D.).

[4] = tested on: normal human dermal fibroblasts; assay: Production of progerin in monolayer cultures of normal human dermal fibroblasts (ELISA); format: cell-based; conditions: for Progerin % DMSO / Progerin Average / Progerin, individual values / Progerin Difference (%): 96 hours; for Progerin Difference (%): vs DMSO; for neo synthesis of progerin: under the retained experimental conditions
Excerpt: In order to study the influence of the compounds of the invention on the concentration of progerin in the cells, the assay method described by C. Verdy, J.-E. Branka and N. Mekideche in <<Quantitative assessment of lactate and progerine production in normal human cutaneous cells during normal ageing: effect of an alaria esculenta extract>>, Int. J. Cosmetic Science, 2011, 1-5, has been used.
as §1
Insulin at 10 nM has been used as a reference product in this study. […]
as §2
Upon completion of the incubation period, on the one hand, the progerin has been quantified in the cellular lysates (obtained by ultrasonic action) through a sensitive and specific ELISA assay, and on the other hand, the proteins that are contained in the cellular lysates have been quantified by a spectrophotometric method (Bradford method—Bradford M. (1976) Anal. Biochem., 72, 248-254).
as §3

[5] = tested on: explants of adipose tissues; assay: Slimming effect: glycerol released in culture medium of adipose tissue explants; format: cell-based, human
Method: The activity of the compounds of the invention on the adipocytes has been assessed. To do so, tests have been carried out on explants of adipose tissues that are kept alive according to the following experimental protocol. The products to be tested are introduced in the culture medium. After 9 days of treatment, the activity is assessed through an assay of the glycerol released in the culture medium. In order to be able to compare the potential activity of the molecules, caffeine (Sigma ref C-0750 batch 127F0396), which is known for its activity on the adipocytes (Studlar M. […] The explants are prepared from a tummy tuck ([…]-AB-40) carried out on a donor. 54 explants of tissues have been prepared and kept alive in a medium which is supplemented with penicillin/streptomycin antibiotics (Gibco ref 15140 batch 918578) at 37° C. and with 5% of CO2. The treatment has been carried out, on 3 explants, by incorporating 100 μl of the product (which is in turn at a 2% concentration in the adequate solvent, DMSO) in 2 ml of the culture medium on days J0, J2, J3, J5 and J7. Caffeine has been diluted to the desired concentration in the culture medium on these same days. The control explants have undergone no treatment. On J0, the 3 explants have been collected and frozen at -80° C. On J9, the remaining explants have been collected and preserved under the same conditions. The extraction of lipids from the culture medium has been carried out according to a tested procedure. The assay of the glycerol of the culture medium has been carried out using a glycerol assay kit (Megazyme, K-GROL) in the form of 96-well microplates and reading has been made at 340 nm with a Tecam Infinite M200 microplate reader associated to the Magellan software.

COc1cc(/C=C/C(=O)NCCCc2ccccc2)cc(OC)c1OC(C)=O [Compound 26, 4-acetoxy-3,5-dimethoxy-N-(3-phenylpropyl)-cinnamamide]
melting point: 132 °C | antioxidant activity in comparison with trolox [1]: slightly higher

COc1cc(/C=C/C(=O)NCC(O)c2ccc(O)cc2)cc(OC)c1OC(C)=O (stereo not shown) [Compound 39]
ORAC Antioxidant activity ([1]; average of 3 measurements): 20968 ± 992 μmol TE/g

COc1cc(/C=C/C(=O)NCCc2ccc(O)cc2)cc(OC)c1OC(C)=O [Compound 36, 4-acetoxy-3,5-dimethoxy-N-(4′-hydroxyphenylethyl)-cinnamamide]
Procollagen % DMSO ([2]; 50 ng/ml): 121.5% | Procollagen Average ([2]; 50 ng/ml): 63.7* pg/mg of protein | Procollagen, individual values ([2]; 50 ng/ml): 68.1 pg/mg of protein and 57.8 pg/mg of protein and 65.3 pg/mg of protein | Procollagen Difference (%) ([2]; 50 ng/ml): 21.5% | Procollagen % DMSO ([2]; 500 ng/ml): 121.8% | Procollagen Average ([2]; 500 ng/ml): 63.9* pg/mg of protein | Procollagen, individual values ([2]; 500 ng/ml): 59.2 pg/mg of protein and 65.1 pg/mg of protein and 67.2 pg/mg of protein | Procollagen Difference (%) ([2]; 500 ng/ml): 21.8% | Procollagen % DMSO ([2]; 5000 ng/ml): 129.0% | Procollagen Average ([2]; 5000 ng/ml): 67.7* pg/mg of protein | Procollagen, individual values ([2]; 5000 ng/ml): 73.8 pg/mg of protein and 64.8 pg/mg of protein and 64.4 pg/mg of protein | Procollagen Difference (%) ([2]; 5000 ng/ml): 29.0% | increase of the neo synthesis of elastin [3]: +63.7% | melting point: 99 °C | Progerin % DMSO ([4]; 50 ng/ml): 84.0% | Progerin Average ([4]; 50 ng/ml): 932.6 ng/mg of protein | Progerin, individual values ([4]; 50 ng/ml): 1552.2 ng/mg of protein and 690.1 ng/mg of protein and 555.6 ng/mg of protein | Progerin Difference (%) ([4]; 50 ng/ml): −16.0% | Progerin % DMSO ([4]; 500 ng/ml): 23.7% | Progerin Average ([4]; 500 ng/ml): 263.6* ng/mg of protein | Progerin, individual values ([4]; 500 ng/ml): 249.8 ng/mg of protein and 288.8 ng/mg of protein and 252.1 ng/mg of protein | Progerin Difference (%) ([4]; 500 ng/ml): −76.3% | Progerin % DMSO ([4]; 5000 ng/ml): 18.8% | Progerin Average ([4]; 5000 ng/ml): 208.2* ng/mg of protein | Progerin, individual values ([4]; 5000 ng/ml): 215.8 ng/mg of protein and 200.8 ng/mg of protein and 207.9 ng/mg of protein | Progerin Difference (%) ([4]; 5000 ng/ml): −81.2% | neo synthesis of progerin [4]: significantly decrease

COc1cc(/C=C/C(=O)NC2CC2)cc(OC)c1OC(C)=O [Compound 34]
antioxidant activity in comparison with trolox [1]: 5 times

CCCCCCCCCCCCCCCCNC(=O)/C=C/c1cc(OC)c(OC(C)=O)c(OC)c1 [Compound 22]
increase of the neo synthesis of elastin [3]: +16.7% | Glycerol % in comparison with caffeine ([5]; after 9 days of treatment): 124% | slimming action higher than that of caffeine ([5]; after 9 days of treatment): 24% | slimming activity in comparison with caffeine ([5]; after 9 days of treatment): enhanced slimming activity | Glycerol Average ([5]; glycerol released in culture medium after 9 days, 100 μl of 2% product in DMSO in 2 ml medium on J0, J2, J3, J5, J7, 3 explants): 0.114 mg/mL | Progerin % DMSO ([4]; 10 ng/ml): 75.4% | Progerin Average ([4]; 10 ng/ml): 837.7 ng/mg of protein | Progerin, individual values ([4]; 10 ng/ml): 880.7 ng/mg of protein and 801.5 ng/mg of protein and 830.7 ng/mg of protein | Progerin Difference (%) ([4]; 10 ng/ml): −24.6% | Progerin % DMSO ([4]; 100 ng/ml): 52.9% | Progerin Average ([4]; 100 ng/ml): 586.9* ng/mg of protein | Progerin, individual values ([4]; 100 ng/ml): 711.0 ng/mg of protein and 548.8 ng/mg of protein and 500.9 ng/mg of protein | Progerin Difference (%) ([4]; 100 ng/ml): −47.1% | Progerin % DMSO ([4]; 500 ng/ml): 67.8% | Progerin Average ([4]; 500 ng/ml): 752.5 ng/mg of protein | Progerin, individual values ([4]; 500 ng/ml): 967.8 ng/mg of protein and 727.4 ng/mg of protein and 562.4 ng/mg of protein | Progerin Difference (%) ([4]; 500 ng/ml): −32.2% | neo synthesis of progerin [4]: significantly decrease

Cc1c(C)c2c(c(C)c1O)CCC(C)(C(=O)O)O2 (stereo not shown) [Trolox, 6-hydroxy-2,5,7,8-tetramethylchroman-2-carboxylic acid, reference compound]
ORAC index ([1]; reference, given the definitions): about 3995 units | ORAC Antioxidant activity ([1]; reference, value follows from the definition of the ORAC unit): 3995 μmol TE/g

COc1cc(/C=C/C(=O)Oc2cc(C)ccc2C(C)C)cc(OC)c1OC(C)=O [Compound 8, 4-acetoxy-3,5-dimethoxy cinnamate of 2-isopropyl-5-methyl phenyl]
melting point: 143 °C

CCCCCCCCCCCCCCCCOC(=O)/C=C/c1cc(OC)c(OC(C)=O)c(OC)c1 [Compound 4, 4-acetoxy-3,5-dimethoxy cinnamate of n-hexadecyl]
melting point: 82 °C

COc1ccc2[nH]cc(CCNC(=O)/C=C/c3cc(OC)c(OC(C)=O)c(OC)c3)c2c1 [Compound 31, 4-acetoxy-3,5-dimethoxy-N-(5-methoxytryptamyl)-cinnamamide]
melting point: 148 °C | ORAC Antioxidant activity ([1]; average of 3 measurements): 4874 ± 216 μmol TE/g
